Experimental findings from patent publication US8637509B2, “Azaindazoles” (GlaxoSmithKline LLC, priority 2010, dated 2014) are described below.

In the assay the target is T1, EZH2 (Homo sapiens, UniProt Q15910).
T1 construct: GRITS37108
Briefly: EZH2 methyltransferase SPA assay (3H-SAM, Hela nucleosomes). It is filed as biochemical. To be noted: read-out: IC50.

Read-outs that look alike come from different tables or passages of the source.

T1 sequence (Q15910 whole entry): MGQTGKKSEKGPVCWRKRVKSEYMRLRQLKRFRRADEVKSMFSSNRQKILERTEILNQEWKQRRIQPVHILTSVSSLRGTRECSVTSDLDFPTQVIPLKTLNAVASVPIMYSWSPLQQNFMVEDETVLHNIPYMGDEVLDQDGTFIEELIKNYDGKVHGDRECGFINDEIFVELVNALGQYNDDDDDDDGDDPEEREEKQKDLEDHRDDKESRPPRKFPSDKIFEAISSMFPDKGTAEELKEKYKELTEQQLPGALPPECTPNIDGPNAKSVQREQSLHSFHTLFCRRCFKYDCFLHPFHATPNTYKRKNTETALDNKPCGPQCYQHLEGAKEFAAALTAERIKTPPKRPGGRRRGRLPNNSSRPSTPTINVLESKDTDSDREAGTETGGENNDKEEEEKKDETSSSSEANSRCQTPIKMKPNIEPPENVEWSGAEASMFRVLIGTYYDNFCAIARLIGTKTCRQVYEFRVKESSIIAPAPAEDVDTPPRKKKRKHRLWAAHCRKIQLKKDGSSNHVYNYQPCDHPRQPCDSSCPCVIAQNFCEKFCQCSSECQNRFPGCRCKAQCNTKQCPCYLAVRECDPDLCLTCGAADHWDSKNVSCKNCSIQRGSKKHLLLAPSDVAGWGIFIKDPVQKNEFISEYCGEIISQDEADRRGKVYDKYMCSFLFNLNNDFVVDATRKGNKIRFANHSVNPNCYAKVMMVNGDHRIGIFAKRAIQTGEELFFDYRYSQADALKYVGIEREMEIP
T1 sequence (O75530 whole entry partner): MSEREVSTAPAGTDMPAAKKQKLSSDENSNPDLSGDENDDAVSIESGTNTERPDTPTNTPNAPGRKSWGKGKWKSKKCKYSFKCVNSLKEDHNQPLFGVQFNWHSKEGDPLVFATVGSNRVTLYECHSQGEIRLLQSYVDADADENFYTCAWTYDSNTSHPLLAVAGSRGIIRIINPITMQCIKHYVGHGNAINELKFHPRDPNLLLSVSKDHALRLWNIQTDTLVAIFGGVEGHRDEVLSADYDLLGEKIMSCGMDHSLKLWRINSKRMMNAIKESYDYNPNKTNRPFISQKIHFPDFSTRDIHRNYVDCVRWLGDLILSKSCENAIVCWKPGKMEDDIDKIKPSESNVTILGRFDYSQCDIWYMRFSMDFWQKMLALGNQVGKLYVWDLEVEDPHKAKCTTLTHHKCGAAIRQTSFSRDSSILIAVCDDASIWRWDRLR
T1 sequence (Q15022 whole entry partner): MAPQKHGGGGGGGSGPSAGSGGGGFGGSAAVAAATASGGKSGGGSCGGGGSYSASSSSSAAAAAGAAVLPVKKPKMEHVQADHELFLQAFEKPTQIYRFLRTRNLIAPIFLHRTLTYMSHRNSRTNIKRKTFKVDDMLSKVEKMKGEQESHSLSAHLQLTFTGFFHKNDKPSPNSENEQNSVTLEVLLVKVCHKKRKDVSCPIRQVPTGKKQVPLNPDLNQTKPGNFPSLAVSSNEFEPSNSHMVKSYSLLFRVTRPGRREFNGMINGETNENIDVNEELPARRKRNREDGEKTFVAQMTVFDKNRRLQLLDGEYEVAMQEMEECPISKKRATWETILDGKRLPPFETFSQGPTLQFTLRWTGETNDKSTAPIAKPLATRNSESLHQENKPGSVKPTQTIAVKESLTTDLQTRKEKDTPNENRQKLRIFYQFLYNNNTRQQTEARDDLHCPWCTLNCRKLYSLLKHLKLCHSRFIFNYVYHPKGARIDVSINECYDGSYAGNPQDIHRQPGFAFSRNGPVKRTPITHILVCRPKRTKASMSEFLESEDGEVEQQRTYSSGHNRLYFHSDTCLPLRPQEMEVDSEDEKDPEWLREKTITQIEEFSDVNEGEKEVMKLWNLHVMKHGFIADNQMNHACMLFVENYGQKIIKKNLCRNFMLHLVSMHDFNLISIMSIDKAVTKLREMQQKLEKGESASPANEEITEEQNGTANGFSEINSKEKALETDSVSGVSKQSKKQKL
Experimental: • 1. […] Prepare 500 μM SAH quench solution in ddH20 with 5-10 drops of concentrated HCl to dissolve. • 5. Prepare 6 mg/ml RNA binding SPA beads (Perkin Elmer) suspended in 0.2 M Citric Acid, pH 2.2
Part C. […] Dispense 5 μL no enzyme control (assay buffer mix) to column 18 of plates. • 2. Dispense 5 μL of enzyme mix to the remaining wells in the plate. Centrifuge plate to mix and incubate at room temperature for 30 minutes. • 3. Dispense 5 μL of substrate mix to all wells to initiate the reactions. Centrifuge plate to mix and incubate at room temperature for 2 hours. • 4. […] Dispense 10 μL of 6 mg/ml RNA binding SPA beads prepared in 0.2 M citric acid, pH 2.2 using the Evolution instrument. Continuously shake the beads while adding to plates to prevent beads from settling. • 6. Seal the plates with Perkin Elmer top seals and allow the beads to equilibrate in the plate for at least 30 minutes at room temperature. • 7. […] Read plates in Microbeta after at least 5 hours incubation. Plates can be read immediately, but signal increases over time.
Reagent addition can be done manually or with automated liquid handler.
*The final DMSO concentration in this assay is 1%.
*The positive control is in column 6; negative control is in column 18.

The term IC50 denotes the concentration at which inhibition is half-maximal. On to `Cc1cc(C)c(CNC(=O)c2cc(-c3ccccc3)nc3c2c(Br)nn3C(C)C)c(=O)[nH]1` [Ex 123, 3-Bromo-N-[(4,6-dimethyl-2-oxo-1,2-dihydro-3-pyridinyl)methyl]-1-(1-methylethyl)-6-phenyl-1H-pyrazolo[3,4-b]pyridine-4-carboxamide], for which the IC50 is 218 nM.

Turning to `Cc1cc(C)c(CNC(=O)c2cc(-c3ccccc3[N+](=O)[O-])nc3c2cnn3C(C)C)c(=O)[nH]1` [Ex 124, N-[(4,6-Dimethyl-2-oxo-1,2-dihydro-3-pyridinyl)methyl]-1-(1-methylethyl)-6-(2-nitrophenyl)-1H-pyrazolo[3,4-b]pyridine-4-carboxamide], the IC50 was found to be 1050 nM.

With `CCCc1cc(C(=O)NCc2c(C)cc(C)[nH]c2=O)c2cnn(C(C)C)c2n1` [Ex 125, N-[(4,6-Dimethyl-2-oxo-1,2-dihydro-3-pyridinyl)methyl]-1-(1-methylethyl)-6-propyl-1H-pyrazolo[3,4-b]pyridine-4-carboxamide], the IC50 was 2160 nM.

Take “N-[(4,6-Dimethyl-2-oxo-1,2-dihydro-3-pyridinyl)methyl]-1-(1-methylethyl)-6-(2-phenylethyl)-1H-pyrazolo[3,4-b]pyridine-4-carboxamide [Ex 32]”: the IC50 (10 nM EZH2, 7 μg/ml Hela nucleosomes, 2-parameter IC50 fit, single-point-in-time values) turned out to be 856 nM.
